Legend:
[1] = target: T1, H1299 cell pMer (Homo sapiens, UniProt Q12866); test: Inhibitory activity on cell pMer, H1299 cells, Human Mer Mab stimulation, Western Blot; format: cell-based; settings: Human Mer Mab 200 ng/mL
T1 construct: endogenous in cells; host or cells: H1299
T1 sequence (Q12866 21-999): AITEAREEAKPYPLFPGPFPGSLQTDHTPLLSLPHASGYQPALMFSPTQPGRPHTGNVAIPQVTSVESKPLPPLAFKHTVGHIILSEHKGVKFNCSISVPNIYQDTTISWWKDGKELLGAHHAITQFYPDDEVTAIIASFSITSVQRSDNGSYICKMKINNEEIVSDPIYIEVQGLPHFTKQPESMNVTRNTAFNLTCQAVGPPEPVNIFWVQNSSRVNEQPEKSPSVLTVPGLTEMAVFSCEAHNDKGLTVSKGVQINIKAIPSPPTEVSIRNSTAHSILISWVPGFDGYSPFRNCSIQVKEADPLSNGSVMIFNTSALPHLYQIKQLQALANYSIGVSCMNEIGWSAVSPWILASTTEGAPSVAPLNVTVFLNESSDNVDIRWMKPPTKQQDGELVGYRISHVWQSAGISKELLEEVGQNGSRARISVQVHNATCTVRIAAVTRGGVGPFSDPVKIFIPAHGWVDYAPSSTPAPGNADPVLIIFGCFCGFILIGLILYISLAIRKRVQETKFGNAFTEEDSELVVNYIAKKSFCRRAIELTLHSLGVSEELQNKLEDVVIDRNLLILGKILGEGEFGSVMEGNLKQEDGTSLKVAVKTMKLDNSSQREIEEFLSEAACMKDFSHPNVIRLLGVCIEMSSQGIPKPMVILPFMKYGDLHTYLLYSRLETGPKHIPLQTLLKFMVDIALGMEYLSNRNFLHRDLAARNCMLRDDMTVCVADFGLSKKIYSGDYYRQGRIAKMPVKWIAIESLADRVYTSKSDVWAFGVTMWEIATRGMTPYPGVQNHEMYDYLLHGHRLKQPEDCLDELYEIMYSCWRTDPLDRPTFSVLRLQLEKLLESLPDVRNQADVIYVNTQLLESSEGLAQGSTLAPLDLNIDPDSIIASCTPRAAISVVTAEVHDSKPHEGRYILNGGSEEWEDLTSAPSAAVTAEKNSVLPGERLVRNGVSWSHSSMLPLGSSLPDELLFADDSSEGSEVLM
Description: H1299 is anon-small cell lung cancer cell.
H1299 cells were inoculated to a 6-well plate (containing 10% FBS 1640 medium, 5×10^5 cells per well) and adherently cultivated at 37° C., and 5% CO2 for 18 hrs. The cells were starved overnight, and then compound solutions with different concentrations were added. The compounds had final concentrations of 0.35, 1.1, 3.3 and 10 nM. […] There was a medium containing 1‰DMSO in the negative control well. The cells were incubated at 37° C., and 5% CO2 for 60 min, and then Human Mer Mab (R&D, final concentration: 200 ng/mL) was added to each well. The cells were further incubated for 60 min, and then the total protein of the cells was extracted for Western Blot experiment. Gray analysis was performed on the results with Image J software, and IC50 values were calculated with GraphPad 5.0 software. The inhibitory activities of the compounds on cell pMer were detected.

[2] = target: CSF1R (h) (Homo sapiens, UniProt P07333); test: Enzymatic activity assay, CSF1R (h), [γ-33P]-ATP filter assay; format: biochemical; settings: 10 μM ATP, 40 min room temperature; read-out: Inhibitory activity IC50 CSF1R(h)
CSF1R (h), sequence (P07333 20-972): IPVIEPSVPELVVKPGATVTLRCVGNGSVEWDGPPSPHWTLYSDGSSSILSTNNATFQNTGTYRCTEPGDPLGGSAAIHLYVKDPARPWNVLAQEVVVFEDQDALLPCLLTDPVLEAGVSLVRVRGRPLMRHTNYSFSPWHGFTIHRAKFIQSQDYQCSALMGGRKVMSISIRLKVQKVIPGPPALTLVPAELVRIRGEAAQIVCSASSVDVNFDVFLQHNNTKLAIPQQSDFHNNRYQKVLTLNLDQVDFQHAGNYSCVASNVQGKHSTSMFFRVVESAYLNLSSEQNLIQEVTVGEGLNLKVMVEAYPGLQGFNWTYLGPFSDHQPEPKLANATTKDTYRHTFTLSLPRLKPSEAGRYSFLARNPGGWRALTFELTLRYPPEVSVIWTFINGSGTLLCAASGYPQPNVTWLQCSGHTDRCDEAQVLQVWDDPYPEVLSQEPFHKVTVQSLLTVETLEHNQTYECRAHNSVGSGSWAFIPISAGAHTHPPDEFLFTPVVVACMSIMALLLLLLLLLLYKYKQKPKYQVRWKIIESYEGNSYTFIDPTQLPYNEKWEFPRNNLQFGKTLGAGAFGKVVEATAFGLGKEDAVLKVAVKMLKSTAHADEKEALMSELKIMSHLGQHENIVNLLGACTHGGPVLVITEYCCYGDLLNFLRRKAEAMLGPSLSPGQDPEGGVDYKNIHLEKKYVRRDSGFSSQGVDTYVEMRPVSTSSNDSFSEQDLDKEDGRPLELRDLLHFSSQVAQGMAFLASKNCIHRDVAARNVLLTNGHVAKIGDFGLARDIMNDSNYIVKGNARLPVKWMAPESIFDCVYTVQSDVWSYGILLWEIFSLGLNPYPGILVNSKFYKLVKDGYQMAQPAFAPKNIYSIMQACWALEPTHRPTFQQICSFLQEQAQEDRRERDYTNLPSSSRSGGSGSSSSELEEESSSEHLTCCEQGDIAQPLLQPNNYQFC
Description: Compounds were each dissolved in 100% DMSO to prepare stock solutions with a maximum concentration of 500 μM.
Compound working solutions (50×) were prepared by diluting a compound stock solution to a final concentration of 500, 150, 50, 15, 5, 1.5, 0.5, 0.15 and 0.05 μM.
An enzyme solution with a final concentration of 64 nM was prepared by dissolving CSF1R enzyme in a mixture of 8 mM MOPS (pH 7.0), 0.2 mM EDTA and 250 μM KKSRGDYMTMQIG. A Mg/ATP mixture of 10 mM magnesium acetate and 10 μM [γ-^33P]-ATP was used to activate the enzymatic reaction.
A compound working solution was added to a 384-well plate, with final concentrations of 10,000, 3,000, 1,000, 300, 100, 30, 10, 3 and 1 nM, and then different enzymatic reaction solutions prepared according to the above conditions were added. The reaction solutions were incubated at room temperature for 40 min, and then 0.5% phosphoric acid solutions were added to terminate the reaction. 10 μL of the reaction solution was added dropwise to P30 filter paper, washed 4 times with a 0.425% phosphoric acid solution and once with methanol, and then placed in a scintillation counter for detection. Gray analysis was performed on the results with Image J software, and IC50 values were calculated with GraphPad 5.0 software.

[3] = Liver microsomal stability; format: in vitro ADME; settings: mouse liver microsomes, 0.5 mg protein/mL, 1 μM compound
Description: An appropriate amount of the compound was precisely weighed and dissolved in DMSO to prepare a 5.0 mM stock solution. The 5.0 mM stock solution was diluted with DMSO to 1.0 mM, and finally diluted with water to a 10 μM working solution of the test sample for use (the DMSO content in the reaction system was 0.1%).
(1) The liver microsomes (20 mg protein/mL) were taken from a −80° C. refrigerator, pre-incubated on a 37° C. water bath thermostatic oscillator for 3 min, and thawed for use.
(2) An incubation system (without compound and β-NADPH) was prepared according to “composition of the incubation system” described above, and pre-incubated on a 37° C. water bath thermostatic oscillator for 2 min.
(3) Control group (without β-NADPH): 30 μL of water and 30 μL of compound working solution (10 μM) were added to 240 μL of the incubation system in step (2), and the reaction system was vortexed for 30 s and thoroughly mixed. The total volume of the reaction system was 300 μL. The sample was duplicated. The reaction solution was placed on a 37° C. water bath thermostatic oscillator for incubation, and timing was started. The sampling was conducted at 0 min and 60 min.
(4) Sample group: 70 μL of β-NADPH solution (10 mM) and 70 μL of compound working solution (10 μM) were added to 560 μL of the incubation system in step (2), and the total volume of the reaction system was 700 μL. The reaction solution was vortexed for 30 s and thoroughly mixed. The sample was duplicated. The reaction solution was placed on a 37° C. water bath thermostatic oscillator for incubation, and timing was started. The sampling was conducted at 0 min, 5 min, 10 min, 20 min, 30 min and 60 min.
(5) The reaction solution was vortexed for 3 min, and centrifuged at 12,000 rpm for 5 min.
(6) 50 μL of the supernatant was added to 150 μL of water, and the resulting solution was thoroughly vortexed and analyzed by LC/MS/MS.

Structure (SMILES)	IC50 [1] [nM]	IC50 [2] [nM]	half-life at 1 μM [3] [h]	microsomal CLint at 1 μM [3] [µL/min/mg]
COc1cc2nccc(Oc3ccc(NC(=O)c4cn(CC5CCOCC5)cc(-c5ccc(C)cc5)c4=O)nc3)c2cc1OC [Compound 1, N-(5-((6,7-dimethoxyquinolin-4-yl)oxy)pyridin-2-yl)-4-oxo-1-((tetrahydro-2H-pyran-4-yl)methyl)-5-(p-tolyl)-1,4-dihydropyridin-3-carboxamide]	1.1 to 3.3	–	–	–
COc1cc2nccc(Oc3ccc(NC(=O)c4nn(CC5CCOCC5)cc(-c5ccc(C)cc5)c4=O)nc3)c2cc1OC [Compound 2, N-(5-((6,7-dimethoxyquinolin-4-yl)oxy)pyridin-2-yl)-4-oxo-1-((tetrahydro-2H-pyran-4-yl)methyl)-5-(p-tolyl)-1,4-dihydropyridazin-3-carboxamide]	1.1	< 200	–	–
COc1cc2nccc(Oc3cnc(NC(=O)c4cn(CC5CCOCC5)cc(-c5ccc(C)cc5)c4=O)nc3)c2cc1OC [Compound 4, N-(5-((6,7-dimethoxyquinolin-4-yl)oxy)pyrimidin-2-yl)-4-oxo-1-((tetrahydro-2H-pyran-4-yl)methyl)-5-(p-tolyl)-1,4-dihydropyridin-3-carboxamide]	1.1	< 200	3.22	7.2
COc1cc2nccc(Oc3ccc(NC(=O)c4cn(CC5CC[S+]([O-])CC5)cc(-c5ccc(C)cc5)c4=O)nc3)c2cc1OC (stereo not drawn) [Compound 8, N-(5-((6,7-dimethoxyquinolin-4-yl)oxy)pyridin-2-yl)-1-((1-oxotetrahydro-2H-thiopyran-4-yl)methyl)-4-oxo-5-(p-tolyl)-1,4-dihydropyridin-3-carboxamide]	–	–	3.22	7.2
COc1cc2nccc(Oc3ccc(NC(=O)c4cn(CC5CCSCC5)cc(-c5ccc(C)cc5)c4=O)nc3)c2cc1OC [Compound 9, N-(5-((6,7-dimethoxyquinolin-4-yl)oxy)pyridin-2-yl)-4-oxo-1-((tetrahydro-2H-thiopyran-4-yl)methyl)-5-(p-tolyl)-1,4-dihydropyridin-3-carboxamide]	1.1 to 3.3	–	0.818	28.2
COc1cc2nccc(Oc3cnc(NC(=O)c4nn(CC5CCOCC5)cc(-c5ccc(C)cc5)c4=O)nc3)c2cc1OC [Compound 16, N-(5-((6,7-dimethoxyquinolin-4-yl)oxy)pyrimidin-2-yl)-4-oxo-1-((tetrahydro-2H-pyran-4-yl)methyl)-5-(p-tolyl)-1,4-dihydropyridazin-3-carboxamide]	1.1	< 200	3.5	6.6
COc1cc2nccc(Oc3ccc(NC(=O)c4nn(C5CCOCC5)cc(-c5ccc(C)cc5)c4=O)nc3)c2cc1OC [Compound 17, N-(5-((6,7-dimethoxyquinolin-4-yl)oxy)pyridin-2-yl)-4-oxo-1-(tetrahydro-2H-pyran-4-yl)-5-(p-tolyl)-1,4-dihydropyridazin-3-carboxamide]	< 0.35	< 200	1.87	12.4
COc1cc2nccc(Oc3ccc(NC(=O)c4cn(C5CCOCC5)cc(-c5ccc(C)cc5)c4=O)nc3)c2cc1OC [Compound 19, N-(5-((6,7-dimethoxyquinolin-4-yl)oxy)pyridin-2-yl)-4-oxo-1-(tetrahydro-2H-pyran-4-yl)-5-(p-tolyl)-1,4-dihydropyridin-3-carboxamide]	< 0.35	–	2.27	10.2
COc1cc2nccc(Oc3ccc(NC(=O)c4cc(CC5CCOCC5)cn(-c5ccc(C)cc5)c4=O)nc3)c2cc1OC [Compound 26, N-(5-((6,7-dimethoxyquinolin-4-yl)oxy)pyridin-2-yl)-oxo-5-((tetrahydro-2H-pyran-4-yl)methyl)-1-(p-tolyl)-1,2-dihydropyridin-3-carboxamide]	–	< 200	1.75	13.2
Cc1ccc(-c2cn(C3CCOCC3)nc(C(=O)Nc3ccc(Oc4ccnc5cc6c(cc45)OCO6)cn3)c2=O)cc1 [Compound 29, N-(5-([1,3]dioxolo[4,5-g]quinolin-8-yloxy)pyridin-2-yl)-4-oxo-1-(tetrahydro-2H-pyran-4-yl)-5-(p-tolyl)-1,4-dihydropyridazin-3-carboxamide]	–	–	1.6	14.4
Cc1ccc(-c2cn(C3CCOCC3)nc(C(=O)Nc3ccc(Oc4ccnc5cc6c(cc45)OCCO6)cn3)c2=O)cc1 [Compound 30, N-(5-((2,3-dihydro-[1,4]dioxino[2,3-g]quinolin-9-yl)oxy)pyridin-2-yl)-4-oxo-1-(tetrahydro-2H-pyran-4-yl)-5-(p-tolyl)-1,4-dihydropyridazin-3-carboxamide]	–	–	1.38	16.8
COc1cc2nccc(Oc3cnc(NC(=O)c4nn(C5CCOCC5)cc(-c5ccc(F)cc5)c4=O)nc3)c2cc1OC [Compound 33, N-(5-((6,7-dimethoxyquinolin-4-yl)oxy)pyrimidin-2-yl)-5-(4-fluorophenyl)-4-oxo-1-(tetrahydro-2H-pyran-4-yl)-1,4-dihydropyridazin-3-carboxamide]	–	< 200	4.82	4.8
COc1cc2nccc(Oc3ccc(NC(=O)c4nn(C5CCOCC5)cc(-c5ccc(F)cc5)c4=O)nc3)c2cc1OC [Compound 34, N-(5-((6,7-dimethoxyquinolin-4-yl)oxy)pyridin-2-yl)-5-(4-fluorophenyl)-4-oxo-1-(tetrahydro-2H-pyran-4-yl)-1,4-dihydropyridazin-3-carboxamide]	–	< 200	5.25	4.4

Source: patent US20210177828A1, “TAM FAMILY KINASE /AND CSF1R KINASE INHIBITOR AND USE THEREOF” (Nanjing Transthera Biosciences Co., Ltd., priority 2018, published 2021)
